{"source": "patent US8513227B2", "about": "“Inhibition of inflammatory cytokine production with tanshinones” (The Feinstein Institute for Medical Research, priority 2006, dated 2013)", "test_system": "HMGB1", "test": "Endotoxin-induced HMGB1 cytoplasmic translocation (immunocytochemistry, cell fractionation/western blot)", "format": "cell-based, murine", "description": "Immunocytochemistry and cell fractionation/western blot. At 16 h after LPS stimulation, cellular HMGB1 was immunostained with anti-HMGB1 polyclonal antibodies, and images were acquired using fluorescent microscope (Carl Zeiss Microimaging, Inc., Thomwood, N.Y.) as previously described (Chen et al. 2004; Rendon-Mitchell et al. 2003). Alternatively, localization of HMGB1 was examined by a cell fractionation/western blotting technique as previously described (Tang et al. 2006). Cell fractionation is based on differential lysis of plasma and nuclear membranes by nonionic detergent (NP-40). Briefly, after selective lysis of the plasma membrane in low salt buffer (10 mM HEPES, pH 7.9; 10 mM KCl; 0.1 mM EDTA; 0.1 mM EGTA; 1 mM DTT; 0.5 mM PMSF, 1% NP-40), the intact nuclei was collected by a quick centrifugation step (7,000 g, 1 min, 4° C.), leaving the cytoplasmic fraction in the supernatant. The nuclei pellet was resuspended in NP-40 high salt buffer (20 mM HEPES, pH 7.9; 0.4 M NaCl; 1 mM EDTA; 1 mM EGTA; 1 mM DTT; 1 mM PMSF, 1% NP-40), and briefly sonicated to generate the nuclear fraction. After fractionation, the protein content of different fractions was determined by the Bradford method, and each fraction was assayed for levels of various protein by western blotting analysis using primary antibodies specific for HMGB1, a cytoplasmic protein (βactin, Santa Cruz Biotechnology), and a nuclear protein (PCNA, BD Biosciences)."}
{"compound": "Cc1c(S(=O)(=O)[O-])oc2c1C(=O)C(=O)c1c-2ccc2c1CCCC2(C)C.[Na+]", "note": "[TSNIIA-SS, tanshinone IIA sodium sulfonate]", "values": [{"measurement": "levels of HMGB1 in the cytoplasmic fractions after LPS", "setting": "cell fractionation/western blot, FIG. 4B", "value": "dramatically reduced"}, {"measurement": "effect on LPS-induced HMGB1 cytoplasmic translocation", "setting": "immunostaining 16 h post LPS, 100 μM, FIG. 4A", "value": "almost completely abrogated"}, {"measurement": "effect on nuclear localization of HMGB1 in resting cells", "setting": "resting cells, data not shown", "value": "did not affect"}]}
